System: 997537-175-T-J1-PDC complex spheroid viability
Assay: Anticancer human tumor 997537-175-T-J1-PDC patient-derived colon adenocarcinoma cell line growth inhibition [GQUAD]
Conditions: for IC50: curve of first compound; for viability, T/C: stronger effect = lower value; active means viability on the fitted dose curve at most 10% of control; inactive means the rest
Outline: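 Multi-cell-type spheroids of tumor cells with HUVEC and mesenchymal stem cells, treated with drug combinations. Concentrations descend in half-log steps from near clinical Cmax, or from 10 microM where Cmax is unknown; viability read-out.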

[1] = second compound 0.0316 µM, first compound 0.0316 µM
[2] = second compound 0.0316 µM, first compound 0.1 µM
[3] = second compound 0.0316 µM, first compound 0.316 µM
[4] = second compound 0.0316 µM, first compound 1 µM
[5] = second compound 0.0316 µM, first compound 3.16 µM
[6] = second compound 0.0316 µM, first compound 10 µM
[7] = second compound 0.1 µM, first compound 0.0316 µM
[8] = second compound 0.1 µM, first compound 0.1 µM
[9] = second compound 0.1 µM, first compound 0.316 µM
[10] = second compound 0.1 µM, first compound 1 µM
[11] = second compound 0.1 µM, first compound 3.16 µM
[12] = second compound 0.1 µM, first compound 10 µM
[13] = second compound 0.316 µM, first compound 0.0316 µM
[14] = second compound 0.316 µM, first compound 0.1 µM
[15] = second compound 0.316 µM, first compound 0.316 µM
[16] = second compound 0.316 µM, first compound 1 µM
[17] = second compound 0.316 µM, first compound 3.16 µM
[18] = second compound 0.316 µM, first compound 10 µM
[19] = second compound 1 µM, first compound 0.0316 µM
[20] = second compound 1 µM, first compound 0.1 µM
[21] = second compound 1 µM, first compound 0.316 µM
[22] = second compound 1 µM, first compound 1 µM
[23] = second compound 1 µM, first compound 3.16 µM
[24] = second compound 1 µM, first compound 10 µM
[25] = second compound 3.16 µM, first compound 0.0316 µM
[26] = second compound 3.16 µM, first compound 0.1 µM
[27] = second compound 3.16 µM, first compound 0.316 µM
[28] = second compound 3.16 µM, first compound 1 µM
[29] = second compound 3.16 µM, first compound 3.16 µM
[30] = second compound 3.16 µM, first compound 10 µM
[31] = second compound 10 µM, first compound 0.0316 µM
[32] = second compound 10 µM, first compound 0.1 µM
[33] = second compound 10 µM, first compound 0.316 µM
[34] = second compound 10 µM, first compound 1 µM
[35] = second compound 10 µM, first compound 3.16 µM
[36] = second compound 10 µM, first compound 10 µM
[37] = second compound 0.0316 µM, first compound 0.000999 µM
[38] = second compound 0.0316 µM, first compound 0.00316 µM
[39] = second compound 0.0316 µM, first compound 0.00999 µM
[40] = second compound 0.0316 µM, first compound 0.0999 µM
[41] = second compound 0.1 µM, first compound 0.000999 µM
[42] = second compound 0.1 µM, first compound 0.00316 µM
[43] = second compound 0.1 µM, first compound 0.00999 µM
[44] = second compound 0.1 µM, first compound 0.0999 µM
[45] = second compound 0.316 µM, first compound 0.000999 µM
[46] = second compound 0.316 µM, first compound 0.00316 µM
[47] = second compound 0.316 µM, first compound 0.00999 µM
[48] = second compound 0.316 µM, first compound 0.0999 µM
[49] = second compound 1 µM, first compound 0.000999 µM
[50] = second compound 1 µM, first compound 0.00316 µM
[51] = second compound 1 µM, first compound 0.00999 µM
[52] = second compound 1 µM, first compound 0.0999 µM
[53] = second compound 3.16 µM, first compound 0.000999 µM
[54] = second compound 3.16 µM, first compound 0.00316 µM
[55] = second compound 3.16 µM, first compound 0.00999 µM
[56] = second compound 3.16 µM, first compound 0.0999 µM
[57] = second compound 10 µM, first compound 0.000999 µM
[58] = second compound 10 µM, first compound 0.00316 µM
[59] = second compound 10 µM, first compound 0.00999 µM
[60] = second compound 10 µM, first compound 0.0999 µM
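Further: spheroids exposed to the agents for 7 days.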
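Wherever viability, T/C is given: 100% = DMSO vehicle control viability.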

CC(C)(O)C1CCC(Nc2ccc3ncc(-c4cccc(C(F)(F)F)c4)n3n2)CC1 (stereo not drawn) + CN(C)c1ccc(Nc2c3ccc(NC(=O)CCN4CCCC4)cc3nc3cc(NC(=O)CCN4CCCC4)ccc23)cc1
1.45 µM: IC50 (second compound 3.16 µM)
1.85 µM: IC50 (second compound 0.316 µM)
2.03 µM: IC50 (second compound 0.0316 µM)
2.23 µM: IC50 (second compound 1 µM)
1.82 µM: IC50 (second compound 0.1 µM)
2.02 µM: IC50 (second compound 10 µM)
inactive: viability, T/C [1] 99.5% | viability, T/C [2] 108% | viability, T/C [3] 88% | viability, T/C [4] 65.8% | viability, T/C [5] 41.1% | viability, T/C [6] 26.1% | viability, T/C [7] 83.8% | viability, T/C [8] 89.8% | viability, T/C [9] 78.2% | viability, T/C [10] 58.9% | viability, T/C [11] 38.2% | viability, T/C [12] 45.8% | viability, T/C [13] 85.2% | viability, T/C [14] 78.5% | viability, T/C [15] 78.2% | viability, T/C [16] 75.3% | viability, T/C [17] 27.9% | viability, T/C [18] 20.4% | viability, T/C [19] 61.4% | viability, T/C [20] 91.5% | viability, T/C [21] 79.2% | viability, T/C [22] 81% | viability, T/C [23] 30.4% | viability, T/C [24] 44.9% | viability, T/C [25] 64.5% | viability, T/C [26] 85.5% | viability, T/C [27] 79.4% | viability, T/C [28] 54.5% | viability, T/C [29] 44% | viability, T/C [30] 36.7% | viability, T/C [31] 87.8% | viability, T/C [32] 96.4% | viability, T/C [33] 95.9% | viability, T/C [34] 70.5% | viability, T/C [35] 37.2% | viability, T/C [36] 22.6%

CCc1c2c(nc3ccc(O)cc13)-c1cc3c(c(=O)n1C2)COC(=O)[C@]3(O)CC + CN(C)c1ccc(Nc2c3ccc(NC(=O)CCN4CCCC4)cc3nc3cc(NC(=O)CCN4CCCC4)ccc23)cc1
0.0103 µM: IC50 (second compound 0.1 µM)
active: viability, T/C [40] 6.84% | viability, T/C [3] 4.15% | viability, T/C [44] 9.03% | viability, T/C [9] 4.26% | viability, T/C [48] 8.39% | viability, T/C [15] 4.2% | viability, T/C [52] 11.6% | viability, T/C [21] 3.86% | viability, T/C [27] 4.51% | viability, T/C [60] 11.7% | viability, T/C [33] 4.48%
0.0158 µM: IC50 (second compound 3.16 µM)
0.0102 µM: IC50 (second compound 0.316 µM)
0.0138 µM: IC50 (second compound 0.0316 µM)
0.0213 µM: IC50 (second compound 10 µM)
0.0157 µM: IC50 (second compound 1 µM)
inactive: viability, T/C [37] 97.8% | viability, T/C [38] 84.2% | viability, T/C [39] 58.6% | viability, T/C [1] 29.5% | viability, T/C [41] 104% | viability, T/C [42] 83.4% | viability, T/C [43] 50.6% | viability, T/C [7] 22.9% | viability, T/C [45] 97% | viability, T/C [46] 78.4% | viability, T/C [47] 51.6% | viability, T/C [13] 22.6% | viability, T/C [49] 77.5% | viability, T/C [50] 58.7% | viability, T/C [51] 67.6% | viability, T/C [19] 23.9% | viability, T/C [53] 75% | viability, T/C [54] 85% | viability, T/C [55] 57.8% | viability, T/C [25] 33.8% | viability, T/C [56] 9.84% | viability, T/C [57] 83.9% | viability, T/C [58] 84% | viability, T/C [59] 80.4% | viability, T/C [31] 34.2%

Nc1ccn(C2OC(CO)C(O)C2(F)F)c(=O)n1 (stereo not drawn) + Cc1cnc(CNC(=O)c2c(=O)c3ccc(N4CCCN(C)CC4)nc3n3c2sc2ccccc23)cn1
inactive: viability, T/C [1] 90.3% | viability, T/C [2] 99.5% | viability, T/C [3] 87.3% | viability, T/C [4] 66.6% | viability, T/C [5] 66.5% | viability, T/C [6] 56.4% | viability, T/C [7] 99.4% | viability, T/C [8] 84.5% | viability, T/C [9] 94.7% | viability, T/C [10] 56.4% | viability, T/C [11] 89.4% | viability, T/C [12] 83.8% | viability, T/C [13] 93.1% | viability, T/C [14] 108% | viability, T/C [15] 69.4% | viability, T/C [16] 76.6% | viability, T/C [17] 94.6% | viability, T/C [18] 92.9% | viability, T/C [19] 89.8% | viability, T/C [20] 103% | viability, T/C [21] 102% | viability, T/C [22] 68.3% | viability, T/C [23] 104% | viability, T/C [24] 77.6% | viability, T/C [25] 68.8% | viability, T/C [26] 96.6% | viability, T/C [27] 106% | viability, T/C [28] 101% | viability, T/C [29] 85.6% | viability, T/C [30] 89.3% | viability, T/C [31] 103% | viability, T/C [32] 85.9% | viability, T/C [33] 113% | viability, T/C [34] 72.9% | viability, T/C [35] 91% | viability, T/C [36] 73.7%
> 10 µM: IC50 (second compound 0.0316 µM) | IC50 (second compound 0.1 µM) | IC50 (second compound 0.316 µM) | IC50 (second compound 1 µM) | IC50 (second compound 3.16 µM) | IC50 (second compound 10 µM)

Cn1ncnc1[C@H]1c2n[nH]c(=O)c3cc(F)cc(c23)N[C@@H]1c1ccc(F)cc1 + CN(C)c1ccc(Nc2c3ccc(NC(=O)CCN4CCCC4)cc3nc3cc(NC(=O)CCN4CCCC4)ccc23)cc1
> 0.316 µM: IC50 (second compound 0.0316 µM) | IC50 (second compound 0.1 µM) | IC50 (second compound 0.316 µM) | IC50 (second compound 1 µM) | IC50 (second compound 3.16 µM) | IC50 (second compound 10 µM)
inactive: viability, T/C [37] 103% | viability, T/C [38] 88.8% | viability, T/C [39] 106% | viability, T/C [1] 66.6% | viability, T/C [40] 81.1% | viability, T/C [3] 68.1% | viability, T/C [41] 100% | viability, T/C [42] 97% | viability, T/C [43] 91.9% | viability, T/C [7] 63% | viability, T/C [44] 102% | viability, T/C [9] 82.1% | viability, T/C [45] 94.8% | viability, T/C [46] 102% | viability, T/C [47] 95.2% | viability, T/C [13] 91.2% | viability, T/C [48] 79.7% | viability, T/C [15] 86.8% | viability, T/C [49] 84.7% | viability, T/C [50] 70.5% | viability, T/C [51] 79.2% | viability, T/C [19] 86.5% | viability, T/C [52] 98.5% | viability, T/C [21] 79.6% | viability, T/C [53] 69.4% | viability, T/C [54] 83.6% | viability, T/C [55] 94.6% | viability, T/C [25] 91.3% | viability, T/C [56] 94.8% | viability, T/C [27] 85.9% | viability, T/C [57] 77.1% | viability, T/C [58] 87.5% | viability, T/C [59] 91.2% | viability, T/C [31] 78.6% | viability, T/C [60] 109% | viability, T/C [33] 104%

— PubChem BioAssay AID2060487 (Molecular Pharmacology Branch, DTP, NCI, 2025)
